# Measured values taken from ChEMBL document CHEMBL1201862, “PubChem BioAssay data set” (2004).
#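 Dose response: 5 concentrations. Exposure: 48 h. Format: 96-well plates. Endpoint: linear interpolation; highest concentration if not reached. GI50 = concentration required for 50% inhibition of growth.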 Activity calls are given as the source filed them. Rule as the data show it: active = GI50 up to about 1.1 µM and inactive = higher.
# How the values were obtained:
# Experiment in all cases: NCI-60 cell line screen, 48 h
# A549 = system: A549
# ACHN = system: ACHN
# BT-549 = system: BT-549
# CAKI-1 = system: CAKI-1
# CCRF-CEM = system: CCRF-CEM
# COLO 205 = system: COLO 205
# DU-145 = system: DU-145
# EKVX = system: EKVX
# HCC 2998 = system: HCC 2998
# HCT-116 = system: HCT-116
# HOP-62 = system: HOP-62
# HOP-92 = system: HOP-92
# HT-29 = system: HT-29
# IGROV-1 = system: IGROV-1
# K562 = system: K562
# KM12 = system: KM12
# LOX IMVI = system: LOX IMVI
# M14 = system: M14
# MCF7 = system: MCF7
# MDA-MB-231 = system: MDA-MB-231
# MDA-MB-435 = system: MDA-MB-435
# MDA-N = system: MDA-N
# MOLT-4 = system: MOLT-4
# NCI-H226 = system: NCI-H226
# NCI-H23 = system: NCI-H23
# NCI-H460 = system: NCI-H460
# NCI/ADR-RES = system: NCI/ADR-RES
# OVCAR-3 = system: OVCAR-3
# OVCAR-4 = system: OVCAR-4
# OVCAR-5 = system: OVCAR-5
# OVCAR-8 = system: OVCAR-8
# PC-3 = system: PC-3
# RPMI-8226 = system: RPMI-8226
# RXF 393 = system: RXF 393
# SF-268 = system: SF-268
# SF-295 = system: SF-295
# SF-539 = system: SF-539
# SK-MEL-28 = system: SK-MEL-28
# SK-MEL-2 = system: SK-MEL-2
# SK-MEL-5 = system: SK-MEL-5
# SK-OV-3 = system: SK-OV-3
# SN12C = system: SN12C
# SNB-19 = system: SNB-19
# SNB-75 = system: SNB-75
# SR = system: SR
# SW-620 = system: SW-620
# T47D = system: T47D
# TK-10 = system: TK-10
# U-251 = system: U-251
# UACC-257 = system: UACC-257
# UACC-62 = system: UACC-62
# UO-31 = system: UO-31
# 786-0 = system: 786-0
# A498 = system: A498
# HCT-15 = system: HCT-15
# HL-60 = system: HL-60
# Hs-578T = system: Hs-578T
# Malme-3M = system: Malme-3M
# NCI-H522 = system: NCI-H522
compound,measurement,setting,value
COC(=O)N1CC2C3C4CC(C(c5ccccc5)=C4c4ccccc4)C3C21 (stereo not given),GI50,A549,18 µM (inactive)
same,GI50,ACHN,23.3 µM (inactive)
same,GI50,BT-549,16 µM (inactive)
same,GI50,CAKI-1,12.6 µM (inactive)
same,GI50,CCRF-CEM,14.9 µM (inactive)
same,GI50,COLO 205,23.1 µM (inactive)
same,GI50,DU-145,14.7 µM (inactive)
same,GI50,EKVX,13.2 µM (inactive)
same,GI50,HCC 2998,16.3 µM (inactive)
same,GI50,HCT-116,11.9 µM (inactive)
same,GI50,HOP-62,19.3 µM (inactive)
same,GI50,HOP-92,11.7 µM (inactive)
same,GI50,HT-29,17.1 µM (inactive)
same,GI50,IGROV-1,17.5 µM (inactive)
same,GI50,K562,6.04 µM (inactive)
same,GI50,KM12,14.6 µM (inactive)
same,GI50,LOX IMVI,12.2 µM (inactive)
same,GI50,M14,26.8 µM (inactive)
same,GI50,MCF7,20 µM (inactive)
same,GI50,MDA-MB-231,7.35 µM (inactive)
same,GI50,MDA-MB-435,15.2 µM (inactive)
same,GI50,MDA-N,20.4 µM (inactive)
same,GI50,MOLT-4,12.5 µM (inactive)
same,GI50,NCI-H226,14 µM (inactive)
same,GI50,NCI-H23,20.9 µM (inactive)
same,GI50,NCI-H460,14.5 µM (inactive)
same,GI50,NCI/ADR-RES,16.8 µM (inactive)
same,GI50,OVCAR-3,15.5 µM (inactive)
same,GI50,OVCAR-4,13.1 µM (inactive)
same,GI50,OVCAR-5,27.7 µM (inactive)
same,GI50,OVCAR-8,17.8 µM (inactive)
same,GI50,PC-3,10 µM (inactive)
same,GI50,RPMI-8226,8.59 µM (inactive)
same,GI50,RXF 393,17.7 µM (inactive)
same,GI50,SF-268,16.3 µM (inactive)
same,GI50,SF-295,13.4 µM (inactive)
same,GI50,SF-539,13.8 µM (inactive)
same,GI50,SK-MEL-28,19.9 µM (inactive)
same,GI50,SK-MEL-2,19.8 µM (inactive)
same,GI50,SK-MEL-5,11.5 µM (inactive)
same,GI50,SK-OV-3,20 µM (inactive)
same,GI50,SN12C,17.6 µM (inactive)
same,GI50,SNB-19,21.1 µM (inactive)
same,GI50,SNB-75,21.8 µM (inactive)
same,GI50,SR,11.1 µM (inactive)
same,GI50,SW-620,18.1 µM (inactive)
same,GI50,T47D,9.82 µM (inactive)
same,GI50,TK-10,15.8 µM (inactive)
same,GI50,U-251,13.2 µM (inactive)
same,GI50,UACC-257,13.7 µM (inactive)
same,GI50,UACC-62,13.2 µM (inactive)
same,GI50,UO-31,12.8 µM (inactive)
Nc1nc2ncc(SCc3ccc(C(=O)NC(CCC(=O)O)C(=O)O)cc3)cc2c(=O)[nH]1 (stereo not given),GI50,786-0,> 100 µM (inactive)
same,GI50,A498,> 100 µM (inactive)
same,GI50,A549,> 100 µM (inactive)
same,GI50,ACHN,> 100 µM (inactive)
same,GI50,BT-549,> 100 µM (inactive)
same,GI50,CAKI-1,> 100 µM (inactive)
same,GI50,COLO 205,> 100 µM (inactive)
same,GI50,DU-145,> 100 µM (inactive)
same,GI50,EKVX,> 100 µM (inactive)
same,GI50,HCC 2998,> 100 µM (inactive)
same,GI50,HCT-116,> 100 µM (inactive)
same,GI50,HCT-15,> 100 µM
same,GI50,HL-60,> 100 µM (inactive)
same,GI50,HOP-62,> 100 µM (inactive)
same,GI50,HOP-92,> 100 µM (inactive)
same,GI50,HT-29,> 100 µM (inactive)
same,GI50,Hs-578T,> 100 µM (inactive)
same,GI50,IGROV-1,> 100 µM (inactive)
same,GI50,K562,> 100 µM (inactive)
same,GI50,KM12,> 100 µM (inactive)
same,GI50,LOX IMVI,> 100 µM (inactive)
same,GI50,M14,> 100 µM (inactive)
same,GI50,MCF7,> 100 µM (inactive)
same,GI50,MDA-MB-435,> 100 µM (inactive)
same,GI50,MDA-N,> 100 µM (inactive)
same,GI50,MOLT-4,> 100 µM (inactive)
same,GI50,Malme-3M,> 100 µM (inactive)
same,GI50,NCI-H226,> 100 µM (inactive)
same,GI50,NCI-H23,> 100 µM (inactive)
same,GI50,NCI-H460,> 100 µM (inactive)
same,GI50,NCI-H522,> 100 µM (inactive)
same,GI50,NCI/ADR-RES,> 100 µM (inactive)
same,GI50,OVCAR-3,> 100 µM (inactive)
same,GI50,OVCAR-4,> 100 µM (inactive)
same,GI50,OVCAR-5,> 100 µM (inactive)
same,GI50,OVCAR-8,> 100 µM (inactive)
same,GI50,PC-3,> 100 µM (inactive)
same,GI50,RPMI-8226,19.4 µM (inactive)
same,GI50,SF-268,> 100 µM (inactive)
same,GI50,SF-295,> 100 µM (inactive)
same,GI50,SF-539,> 100 µM (inactive)
same,GI50,SK-MEL-28,> 100 µM (inactive)
same,GI50,SK-MEL-2,> 100 µM (inactive)
same,GI50,SK-MEL-5,> 100 µM (inactive)
same,GI50,SK-OV-3,> 100 µM (inactive)
same,GI50,SN12C,> 100 µM (inactive)
same,GI50,SNB-19,> 100 µM (inactive)
same,GI50,SR,> 100 µM (inactive)
same,GI50,SW-620,> 100 µM (inactive)
same,GI50,TK-10,> 100 µM (inactive)
same,GI50,U-251,> 100 µM (inactive)
same,GI50,UACC-257,> 100 µM (inactive)
same,GI50,UACC-62,> 100 µM (inactive)
same,GI50,UO-31,> 100 µM (inactive)
OCC1NC(CO)C(O)C1O (stereo not given),GI50,BT-549,> 100 µM (inactive)
same,GI50,CCRF-CEM,> 100 µM (inactive)
same,GI50,HL-60,> 100 µM (inactive)
same,GI50,HOP-62,> 100 µM (inactive)
same,GI50,Hs-578T,> 100 µM (inactive)
same,GI50,MDA-N,> 100 µM (inactive)
same,GI50,OVCAR-3,> 100 µM (inactive)
same,GI50,OVCAR-4,> 100 µM (inactive)
same,GI50,OVCAR-5,> 100 µM (inactive)
same,GI50,PC-3,> 100 µM (inactive)
same,GI50,RPMI-8226,> 100 µM (inactive)
same,GI50,RXF 393,> 100 µM (inactive)
same,GI50,SK-MEL-2,> 100 µM (inactive)
same,GI50,SN12C,> 10 µM (inactive)
same,GI50,SNB-19,> 100 µM (inactive)
same,GI50,SR,> 100 µM (inactive)
same,GI50,SW-620,> 100 µM (inactive)
same,GI50,U-251,> 100 µM (inactive)
same,GI50,UACC-257,> 100 µM (inactive)
